Laboratory results: US10266497B2 (ABIDE THERAPEUTICS, INC., priority 2017, dated 2019)

Legend:
MAGL [1] = molecular target: T1, MAGL (Homo sapiens, UniProt Q99685); experiment: In vitro competitive activity-based protein profiling, MAGL, human; conditions: for inhibition at 10 µM: read-out: MAGL % inh. (human) at 10 uM; for inhibition at 1 µM: read-out: MAGL % inh. 1 μM (human)
T1 sequence (Q99685 1-303): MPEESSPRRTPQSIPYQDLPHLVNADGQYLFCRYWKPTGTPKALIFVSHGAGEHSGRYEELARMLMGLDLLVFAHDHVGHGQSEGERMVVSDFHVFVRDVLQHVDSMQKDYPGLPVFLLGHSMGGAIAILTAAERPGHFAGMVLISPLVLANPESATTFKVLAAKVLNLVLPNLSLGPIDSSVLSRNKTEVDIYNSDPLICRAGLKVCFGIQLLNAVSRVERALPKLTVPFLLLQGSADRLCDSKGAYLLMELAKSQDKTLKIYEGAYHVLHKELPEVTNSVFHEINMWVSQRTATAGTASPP

MAGL [2] = molecular target: T2, MAGL (Mus musculus, UniProt O35678); experiment: In vitro competitive activity-based protein profiling, MAGL, mouse; conditions: read-out: MAGL % inh. 1 μM (mouse)
T2 sequence (O35678 1-303): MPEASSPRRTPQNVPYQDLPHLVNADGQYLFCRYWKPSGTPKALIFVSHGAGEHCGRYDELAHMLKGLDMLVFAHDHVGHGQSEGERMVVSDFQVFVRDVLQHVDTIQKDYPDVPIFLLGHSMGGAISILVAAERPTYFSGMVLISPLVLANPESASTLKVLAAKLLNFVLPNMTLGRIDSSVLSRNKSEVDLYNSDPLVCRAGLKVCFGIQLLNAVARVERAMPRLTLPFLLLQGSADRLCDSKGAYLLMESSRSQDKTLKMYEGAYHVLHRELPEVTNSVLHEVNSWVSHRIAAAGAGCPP

FAAH [3] = molecular target: T3, FAAH (Homo sapiens, UniProt O00519); experiment: In vitro competitive activity-based protein profiling, FAAH, human; conditions: for inhibition at 1 µM: read-out: FAAH % inh. 1 μM (human)
T3 sequence (O00519 1-579): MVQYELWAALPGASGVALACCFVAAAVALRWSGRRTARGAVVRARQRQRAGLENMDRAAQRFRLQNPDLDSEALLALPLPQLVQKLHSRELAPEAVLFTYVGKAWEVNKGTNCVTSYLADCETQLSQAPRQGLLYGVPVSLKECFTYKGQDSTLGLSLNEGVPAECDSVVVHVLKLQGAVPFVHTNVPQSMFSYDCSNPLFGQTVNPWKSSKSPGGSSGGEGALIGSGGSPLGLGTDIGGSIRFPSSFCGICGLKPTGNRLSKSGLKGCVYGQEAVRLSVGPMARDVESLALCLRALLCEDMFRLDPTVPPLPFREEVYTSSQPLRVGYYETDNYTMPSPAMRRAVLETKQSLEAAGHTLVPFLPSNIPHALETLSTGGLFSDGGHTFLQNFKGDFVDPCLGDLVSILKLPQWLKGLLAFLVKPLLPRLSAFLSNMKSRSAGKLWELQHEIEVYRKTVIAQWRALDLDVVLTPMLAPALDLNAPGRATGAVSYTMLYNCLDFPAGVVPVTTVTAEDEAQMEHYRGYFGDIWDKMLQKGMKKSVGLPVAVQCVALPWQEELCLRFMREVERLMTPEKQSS
Procedure: Biological Evaluation In Vitro Competitive Activity-Based Protein Profiling.
Proteomes (mouse brain membrane fraction for mouse assays; human prefrontal cortex membrane fractions for human assays) (50 mL, 1.0 mg/mL total protein concentration) were preincubated with varying concentrations of inhibitors at 37° C. After 30 min, FP-Rh (1.0 mL, 50 mM in DMSO) was added and the mixture was incubated for another 30 min at 37° C. Reactions were quenched with SDS loading buffer (15 μL—4λ) and run on SDS-PAGE.

FAAH [4] = molecular target: T4, FAAH (Mus musculus, UniProt O08914); experiment: In vitro competitive activity-based protein profiling, FAAH, mouse; conditions: read-out: FAAH % inh. 1 μM (mouse)
T4 sequence (O08914 1-579): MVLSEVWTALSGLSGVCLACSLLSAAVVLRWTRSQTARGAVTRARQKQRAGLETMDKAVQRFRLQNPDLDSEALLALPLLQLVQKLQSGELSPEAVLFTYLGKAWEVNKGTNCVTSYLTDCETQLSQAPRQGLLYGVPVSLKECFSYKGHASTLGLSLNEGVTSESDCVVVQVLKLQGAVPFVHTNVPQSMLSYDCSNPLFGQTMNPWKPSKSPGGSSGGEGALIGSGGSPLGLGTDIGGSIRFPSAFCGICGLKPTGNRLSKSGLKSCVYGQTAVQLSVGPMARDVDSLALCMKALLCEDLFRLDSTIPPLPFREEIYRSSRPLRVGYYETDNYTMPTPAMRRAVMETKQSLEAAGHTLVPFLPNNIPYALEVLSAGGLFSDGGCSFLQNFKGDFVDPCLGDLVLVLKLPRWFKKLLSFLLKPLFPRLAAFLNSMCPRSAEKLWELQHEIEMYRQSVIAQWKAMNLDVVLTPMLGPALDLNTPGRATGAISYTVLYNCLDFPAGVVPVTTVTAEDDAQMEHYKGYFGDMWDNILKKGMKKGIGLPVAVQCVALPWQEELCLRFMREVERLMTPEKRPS

| Compound | inhibition at 10 µM (MAGL [1]) [%] | inhibition at 1 µM (MAGL [2]) [%] | inhibition at 50 µM (FAAH [3]; read-out: FAAH % inh. (human) at 50 uM) [%] | inhibition at 1 µM (FAAH [4]) [%] | inhibition at 1 µM (FAAH [3]) [%] | IC50 (MAGL [1]) [nM] | inhibition at 1 µM (MAGL [1]) [%] | IC50 (FAAH [3]) [nM] |
| --- | --- | --- | --- | --- | --- | --- | --- | --- |
| O=C(O)c1nn(C(=O)N2CC3CN(Cc4ccc(-c5nnn[nH]5)cc4C(F)(F)F)CC3C2)cc1Cl (stereo not shown) [Example 141, 1-(5-(4-(1H-tetrazol-5-yl)-2-(trifluoromethyl)benzyl)octahydro-pyrrolo[3,4-c]pyrrole-2-carbonyl)-4-chloro-1H-pyrazole-3-carboxylic acid] | > 75 | 0 to 25 | > 75 | 0 to 25 | – | – | – | – |
| O=C(O)c1nn(C(=O)N2CCN(Cc3ccc(-c4nnn[nH]4)cc3C(F)(F)F)CC2)cc1Cl [Example 142, 1-(4-(4-(1H-tetrazol-5-yl)-2-(trifluoromethyl)benzyl)piperazine-1-carbonyl)-4-chloro-1H-pyrazole-3-carboxylic acid] | > 75 | 0 to 25 | – | 0 to 25 | 0 to 25 | – | – | – |
| O=C(O)c1nn(C(=O)N2CC3CC(OCc4ccccc4Cl)CC3C2)cc1C(F)(F)F (stereo not shown) [Example 143, 1-(5-((2-chlorobenzyl)oxy)octahydrocyclopenta [c]pyrrole-2-carbonyl)-4-(trifluoromethyl)-1H-pyrazole-3-carboxylic acid] | – | 0 to 25 | – | > 75 | > 75 | 1000 to 10000 | 0 to 25 | 100 to 1000 |
| C#Cc1ccc(CN2CCN(C(=O)n3ccc(C(N)=O)n3)CC2)cc1 [Example 144, 1-(4-(4-ethynylbenzyl)piper-azine-1-carbonyl)-1H-pyrazole-3-carboxamide] | – | > 75 | – | > 75 | > 75 | – | > 75 | – |
| O=C(O)c1nn(C(=O)N2CCN(Cc3ccc(-c4cnc5ccccn45)cc3C(F)(F)F)CC2)cc1Cl [Example 145, 4-chloro-1-(4-(4-(imidazo[1,2-a]pyridin-3-yl)-2-(trifluoromethyl)benzyl)piperazine-1-carbonyl)-1H-pyrazole-3-carboxylic acid] | – | > 75 | – | > 75 | 50 to 75 | – | > 75 | – |
| O=C(O)c1nn(C(=O)N2CC3CN(Cc4cc(Cl)ccc4Cl)CC3C2)cc1C(F)(F)F (stereo not shown) [Example 146, 1-(5-(2,5-dichlorobenzyl)octa-hydropyrrolo[3,4-c]pyrrole-2-carbonyl)-4-(trifluoromethyl)-1H-pyrazole-3-carboxylic acid] | – | 50 to 75 | – | > 75 | > 75 | – | > 75 | – |

Next, values leading:

| inhibition at 10 µM (MAGL [1]) [%] | inhibition at 1 µM (MAGL [2]) [%] | inhibition at 50 µM (FAAH [3]; read-out: FAAH % inh. (human) at 50 uM) [%] | inhibition at 1 µM (FAAH [4]) [%] | inhibition at 1 µM (FAAH [3]) [%] | IC50 (MAGL [1]) [nM] | inhibition at 1 µM (MAGL [1]) [%] | IC50 (FAAH [3]) [nM] | Compound |
| --- | --- | --- | --- | --- | --- | --- | --- | --- |
| – | 0 to 25 | – | > 75 | > 75 | – | > 75 | – | O=C(O)c1nn(C(=O)N2CC3CN(Cc4cccc(Oc5ccc(Cl)cc5)c4)CC3C2)cc1C(F)(F)F (stereo not shown) [Example 147, 1-(5-(3-(4-chlorophenoxy)benzyl)octahydro-pyrrolo[3,4-c]pyrrole-2-carbonyl)-4-(trifluoromethyl)-1H-pyrazole-3-carboxylic acid] |
| – | > 75 | – | > 75 | 25 to 50 | 100 to 1000 | > 75 | 1000 to 10000 | O=C(O)c1nn(C(=O)N2CCC3(CCCN3Cc3cc4ccc(C(F)(F)F)cc4s3)CC2)cc1C(F)(F)F [Example 149, 4-(trifluoromethyl)-1-(1-((6-(trifluoromethyl)benzo[b]thiophen-2-yl)methyl)-1,8-diazaspiro[4.5]decane-8-carbonyl)-1H-pyrazole-3-carboxylic acid] |
| – | 25 to 50 | – | > 75 | 50 to 75 | – | 25 to 50 | – | O=C(O)c1nn(C(=O)N2CCC3(CCN(Cc4ccc(N5CCCC5)cc4C(F)(F)F)C3)CC2)cc1C(F)(F)F [Example 150, 1-(2-(4-(pyrrolidin-1-yl)-2-(trifluoromethyl)benzyl)-2,8-diazaspiro[4.5]decane-8-carbonyl)-4-(trifluoromethyl)-1H-pyrazole-3-carboxylic acid] |
| – | > 75 | – | 25 to 50 | 25 to 50 | – | > 75 | – | O=C(O)c1nn(C(=O)N2CC3CN(Cc4cc(N5CCCC5)cc(C(F)(F)F)c4)CC3C2)cc1Cl (stereo not shown) [Example 151, 4-chloro-1-(5-(3-(pyrrolidin-1-yl)-5-(trifluoromethyl)benzyl)octahydro-pyrrolo[3,4-c]pyrrole-2-carbonyl)-1H-pyrazole-3-carboxylic acid] |
| – | > 75 | – | 50 to 75 | 0 to 25 | – | > 75 | – | O=C(O)c1ccn(C(=O)N2CCC3(CCN(Cc4cc(F)cc(C(F)(F)F)c4)C3)CC2)n1 [Example 152, 1-(2-(3-fluoro-5-(trifluoromethyl)benzyl)-2,8-diazaspiro[4.5]decane-8-carbonyl)-1H-pyrazole-3-carboxylic acid] |
| – | > 75 | – | 25 to 50 | 0 to 25 | – | > 75 | – | O=C(O)c1ccn(C(=O)N2CCC3(CCN(Cc4cccc(OC(F)(F)F)c4)C3)CC2)n1 [Example 153, 1-(2-(3-(trifluoromethoxy)benzyl)-2,8-diazaspiro[4.5]decane-8-carbonyl)-1H-pyrazole-3-carboxylic acid] |
| – | > 75 | – | 0 to 25 | 0 to 25 | – | > 75 | – | Cc1ccc(CN2CCC3(CCN(C(=O)n4ccc(C(=O)O)n4)CC3)C2)cc1Cl [Example 154, 1-(2-(3-chloro-4-methylbenzyl)-2,8-diazaspiro[4.5]decane-8-carbonyl)-1H-pyrazole-3-carboxylic acid] |
| – | > 75 | – | 0 to 25 | 0 to 25 | 100 to 1000 | > 75 | 1000 to 10000 | Cc1cc(CN2CCC3(CCN(C(=O)n4ccc(C(=O)O)n4)CC3)C2)ccc1C(F)(F)F [Example 155, 1-(2-(3-methyl-4-(trifluoromethyl)benzyl)-2,8-diazaspiro[4.5]decane-8-carbonyl)-1H-pyrazole-3-carboxylic acid] |
| – | > 75 | – | > 75 | 0 to 25 | – | > 75 | – | O=C(O)c1ccn(C(=O)N2CC3CN(Cc4cccc(-c5ccccc5)c4)CC3C2)n1 (stereo not shown) [Example 156, 1-(5-([1,1′-biphenyl]-3-ylmethyl)octahydropyrrolo[3,4-c]pyrrole-2-carbonyl)-1H-pyrazole-3-carboxylic acid] |
| – | > 75 | – | > 75 | > 75 | – | > 75 | – | O=C(O)c1ccn(C(=O)N2CCN(Cc3cc(F)cc(Oc4ccc(Cl)cc4)c3)CC2)n1 [Example 161, 1-(4-(3-(4-chlorophenoxy)-5-fluorobenzyl)pipera-zine-1-carbonyl)-1H-pyrazole-3-carboxylic acid] |
